The structures appear in SMILES notation. Like-named read-outs stand apart in the source and are kept apart here. A value given as a limit tells only on which side of the number the result lay.

The text below walks through data of patent US9249129B2, “Morpholino substituted urea derivatives as mTOR inhibitors” (CELLZOME LIMITED, priority 2010, dated 2016).

The target of assay [1] is T1, DNA-dependent protein kinase (DNA-PK) (Homo sapiens, UniProt P78527).
T1 construct: endogenous in cells; host or cells: Jurkat cells (ATCC TIB-152, clone E6-1), lysate
Nature of the assay: kinobeads assay, DNA-PK (dot blot detection). The assay is classed as binding. The procedure: (§1) The compounds of the present invention as described were tested in the mTOR kinobeads assay as described below. Briefly, test compounds (at various concentrations) and the affinity matrix (1:1 mixture of beads with immobilized phenylthiazole ligand 1 and beads with immobilized phenylmorpholin-chromen ligand; WO 2009/098021) were added to cell lysate aliquots and allowed to bind to the proteins in the lysate sample. After the incubation time the beads with captured proteins were separated from the lysate. Bound proteins were then eluted and the presence of mTOR, PI3K delta (PI3 Kd) and DNA-dependent protein kinase (DNA-PK) was detected and quantified using a specific antibody in a dot blot procedure and the Odyssey infrared detection system. Dose response curves for individual kinases were generated and IC50 values calculated. Kinobeads assays for PI3 kinases (WO-A 2008/015013) and for kinase selectivity profiling (WO 2009/098021) have been previously described.
(§2) The affinity matrix (beads with immobilized phenylmorpholin-chromen ligand) was washed two times with 15 ml of 1×DP buffer containing 0.2% NP40 (IGEPAL® CA-630, Sigma, #13021) and then resupended in 5.5 ml of 1×DP buffer containing 0.2% NP40 (10% beads slurry).
(§3) 5×DP buffer: 250 mM Tris-HCl pH 7.4, 25% Glycerol, 7.5 mM MgCl2, 750 mM NaCl, 5 mM Na3VO4, filter the 5×-lysis buffer through 0.22 μm filter and store in aliquots at −80° C. The 5×DP buffer is diluted to 1×DP buffer containing 1 mM DTT and 25 mM NaF.
(§4) Stock solutions of test compounds were prepared in DMSO. In a 96 well plate 30 μl solution of diluted test compounds at 5 mM in DMSO were prepared. Starting with this solution a 1:3 dilution series (9 steps) was prepared. For control experiments (no test compound) a buffer containing 2% DMSO was used. Compound CZC00018052 served as a positive control (PI-103; Calbiochem catalogue number 528100).
(§5) Jurkat cells (ATCC catalogue number TIB-152 Jurkat, clone E6-1) were grown in 1 litre Spinner flasks (Integra Biosciences, #182101) in suspension in RPMI 1640 medium (Invitrogen, #21875-034) supplemented with 10% Fetal Bovine Serum (Invitrogen) at a density between 0.15×10^6 and 1.2×10^6 cells/ml. Cells were harvested by centrifugation, washed once with 1×PBS buffer (Invitrogen, #14190-094) and cell pellets were frozen in liquid nitrogen and subsequently stored at −80° C.
(§6) Jurkat cells were homogenized in a Potter S homogenizer in lysis buffer: 50 mM Tris-HCl, 0.8% NP40, 5% glycerol, 150 mM NaCl, 1.5 mM MgCl2, 25 mM NaF, 1 mM sodium vanadate, 1 mM DTT, pH 7.5. One complete EDTA-free tablet (protease inhibitor cocktail, Roche Diagnostics, 1873580) per 25 ml buffer was added. The material was dounced 10 times using a mechanized POTTER S, transferred to 50 ml falcon tubes, incubated for 30 minutes on ice and spun down for 10 min at 20,000 g at 4° C. (10,000 rpm in Sorvall SLA600, precooled). The supernatant was transferred to an ultracentrifuge (UZ)-polycarbonate tube (Beckmann, 355654) and spun for 1 hour at 100.000 g at 4° C. (33.500 rpm in Ti50.2, precooled). The supernatant was transferred again to a fresh 50 ml falcon tube, the protein concentration was determined by a Bradford assay (BioRad) and samples containing 50 mg of protein per aliquot were prepared. The samples were immediately used for experiments or frozen in liquid nitrogen and stored frozen at −80° C.
(§7) Jurkat cell lysate (approximately 50 mg protein per plate) was thawed in a water bath at room temperature and then kept on ice. To the thawed cell lysate 1×DP 0.8% NP40 buffer containing protease inhibitors (1 tablet for 25 ml buffer; EDTA-free protease inhibitor cocktail; Roche Diagnostics 1873580) was added in order to reach a final protein concentration of 5 mg/ml total protein. The diluted cell lysate was stored on ice. […]

Assay [2] concerns the target T2, PI3K delta (PI3Kd) (Homo sapiens, UniProt O00329).
T2 construct: endogenous in cells; host or cells: Jurkat cells (ATCC TIB-152, clone E6-1), lysate
Nature of the assay: kinobeads assay, PI3K delta (dot blot detection). The assay is classed as binding. The method, then: as §1, §2, §3, §4, §5, §6, §7

The target in assay [3] is T3, PI3Kβ (Homo sapiens, UniProt P42338).
T3 construct: endogenous in cells; host or cells: Jurkat cells (ATCC TIB-152) lysate, the only lysate described
Nature of the assay: kinobeads assay, PI3K beta (dot blot detection). The assay is classed as binding. The conditions noted are these: Table 4, read-out: Inhibition values (IC50) PI3Kb.

The target in assay [4] is T4, mTOR (Homo sapiens, UniProt P42345).
T4 construct: endogenous in cells; host or cells: Jurkat cells (ATCC TIB-152, clone E6-1), lysate
Nature of the assay: mTOR kinobeads assay (dot blot detection). The assay is classed as binding. The method, then: as §1, §2, §3, §4, §5, §6, §7

The test system of assay [5] is S6RP serine-240/244 phosphorylation in HEK293T/17 cells. Nature of the assay: In vitro phospho-S6 cellular assay (pS6RP S240/244). The assay is classed as cell-based. The conditions noted are these: Homo sapiens, Table 6, 2 hours, S6RP Ser240/244, read-out: pS6 (phospho-S6 cell assay data, activity level). An excerpt: In Vitro Phospho-S6 and Phospho-Akt Cellular Assay
Activation of mTOR signaling results in phosphorylation of several downstream targets. In cells, mTOR exists in two different protein complexes. The mTOR Complex-1 (mTORC1) phosphorylates and activates S6 Kinase 1 (S6K1) and S6 Kinase 2 (S6K2) (also known as p70S6K) which then phosphorylate S6 Ribosomal Protein (S6RP) (also known as RPS6). S6RP is phosphorylated on serine 235, serine 236, serine 240 and serine 244 by both pS6K1 and pS6K2. The mTOR Complex-2 (mTORC2) phosphorylates AKT on serine 473 which activates the AKT signaling pathway.
The assay measures a test compound's inhibition of S6RP serine-240/244 phosphorylation and inhibition of Akt serine-473 phosphorylation in human embryonic kidney derived HEK293T/17 cells (ATCC CRL-11268).
The HEK293T/17 cell line is maintained in DMEM media (Invitrogen catalogue number 41965-039) supplemented with 10% FCS at 37° C. in a 5% CO2 humidified incubator.
Cells are seeded in 96-well plates at 40,000 cells/well (pS6RP S240/244 assay) or 80,000 cells/well (pAkt 5473 assay) in 90 μl growth media (DMEM, 2% FCS). Plates are incubated for 1 hour in a humidified incubator to allow the cells to adhere. Cells are treated with 8 concentrations of test compounds or DMSO alone for controls (final DMSO concentration 0.1%) and incubated at 37° C. for 2 hours. Then 20 μl of 5× concentrated lysis buffer (750 mM NaCl, 100 mM Tris pH7.4, 5 mM EDTA, 5 mM EGTA, 5% Triton X-100) is added, plates are sealed and incubated for 15 minutes at 4° C. with gentle shaking. After cell lysis, 25 μl cell lysate is transferred to a MesoScale plate coated with an antibody to pS6RP Ser240/244 (MesoScale Discovery K150DGD-3) or an antibody to pAkt Ser 473 (MesoScale Discovery K151DGD-3). Plates have been blocked before by incubation with 150 μl MesoScale Discovery Blocking Solution-A for 1 hour at room temperature followed by washing with 150 μl 1× Tris wash buffer per well. After the transfer of the cell lysate to the MSD plate, the pS6RP (or pAkt) protein is captured on the coated antibody by incubation at room temperature for 1 hour with gentle shaking. After the capture step the plate is washed three times with 150 μl of 1× Tris wash buffer per well. Then 25 μl detection antibody conjugated with a Sulfo-Tag is added and incubated for 1 hour at room temperature with gentle shaking. Subsequently the antibody solution is removed and the plate is washed 3 times with 150 μl 1× Tris wash buffer per well and 150 μl Read buffer is added. The plates are analysed on a MSD 2400 Plate Reader (MesoScale Discovery). Data analysis is performed using nonlinear regression for a sigmoidal dose-response with a variable slope.

Assay [6] concerns the target T5, PI3Kα (Homo sapiens, UniProt P42336).
T5 construct: endogenous in cells; host or cells: Jurkat cells (ATCC TIB-152) lysate, the only lysate described
Nature of the assay: kinobeads assay, PI3K alpha (dot blot detection). The assay is classed as binding. The conditions noted are these: Table 4, read-out: Inhibition values (IC50) PI3Ka.

Assay [7] addresses T6, PI3Kγ (Homo sapiens, UniProt P48736).
T6 construct: endogenous in cells; host or cells: Jurkat cells (ATCC TIB-152) lysate, the only lysate described
Nature of the assay: kinobeads assay, PI3K gamma (dot blot detection). Particulars: Table 4, read-out: Inhibition values (IC50) PI3Kg. The assay is classed as binding.

Setting [8] is: Table 2, Jurkat cell lysate, read-out: Inhibition values (IC50) DNAPK.
[9] abbreviates: Table 4, read-out: Inhibition values (IC50) DNAPK.
The mark [10] stands for this setting: Table 2, Jurkat cell lysate, read-out: Inhibition values (IC50) PI3Kd.
The mark [11] stands for this setting: Table 4, read-out: Inhibition values (IC50) PI3Kd.
Setting [12] is: Table 2, Jurkat cell lysate, read-out: Inhibition values (IC50) mTor.
Setting [13] is: Table 4, read-out: Inhibition values (IC50) mTOR.

T6 sequence (P48736 whole entry): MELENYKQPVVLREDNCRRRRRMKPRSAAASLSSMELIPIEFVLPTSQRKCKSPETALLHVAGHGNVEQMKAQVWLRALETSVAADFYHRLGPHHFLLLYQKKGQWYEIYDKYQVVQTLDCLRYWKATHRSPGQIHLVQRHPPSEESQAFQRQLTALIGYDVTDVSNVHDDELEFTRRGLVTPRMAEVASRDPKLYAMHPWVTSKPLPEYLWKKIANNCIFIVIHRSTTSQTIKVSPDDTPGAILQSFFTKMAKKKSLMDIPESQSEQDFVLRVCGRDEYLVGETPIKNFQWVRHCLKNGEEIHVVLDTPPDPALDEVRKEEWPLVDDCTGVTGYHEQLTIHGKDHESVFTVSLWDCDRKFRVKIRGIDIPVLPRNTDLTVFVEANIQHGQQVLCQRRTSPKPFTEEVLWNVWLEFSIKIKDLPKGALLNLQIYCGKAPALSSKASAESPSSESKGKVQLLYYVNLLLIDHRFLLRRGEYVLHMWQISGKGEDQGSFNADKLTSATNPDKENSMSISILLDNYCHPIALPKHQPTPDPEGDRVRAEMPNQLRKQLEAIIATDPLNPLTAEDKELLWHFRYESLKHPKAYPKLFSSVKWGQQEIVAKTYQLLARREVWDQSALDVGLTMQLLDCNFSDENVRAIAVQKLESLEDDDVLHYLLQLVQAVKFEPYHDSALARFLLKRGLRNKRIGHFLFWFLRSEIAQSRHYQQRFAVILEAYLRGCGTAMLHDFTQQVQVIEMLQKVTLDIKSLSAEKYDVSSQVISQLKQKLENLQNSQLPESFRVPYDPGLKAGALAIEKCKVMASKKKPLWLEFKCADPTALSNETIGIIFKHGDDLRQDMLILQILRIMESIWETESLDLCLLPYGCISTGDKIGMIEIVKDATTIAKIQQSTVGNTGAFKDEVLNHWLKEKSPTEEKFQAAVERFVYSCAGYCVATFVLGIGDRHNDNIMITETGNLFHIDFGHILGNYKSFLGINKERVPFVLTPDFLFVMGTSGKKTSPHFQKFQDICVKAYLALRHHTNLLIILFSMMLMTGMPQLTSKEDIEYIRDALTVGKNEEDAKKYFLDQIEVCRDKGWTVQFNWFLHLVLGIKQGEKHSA
T2 sequence (O00329 whole entry): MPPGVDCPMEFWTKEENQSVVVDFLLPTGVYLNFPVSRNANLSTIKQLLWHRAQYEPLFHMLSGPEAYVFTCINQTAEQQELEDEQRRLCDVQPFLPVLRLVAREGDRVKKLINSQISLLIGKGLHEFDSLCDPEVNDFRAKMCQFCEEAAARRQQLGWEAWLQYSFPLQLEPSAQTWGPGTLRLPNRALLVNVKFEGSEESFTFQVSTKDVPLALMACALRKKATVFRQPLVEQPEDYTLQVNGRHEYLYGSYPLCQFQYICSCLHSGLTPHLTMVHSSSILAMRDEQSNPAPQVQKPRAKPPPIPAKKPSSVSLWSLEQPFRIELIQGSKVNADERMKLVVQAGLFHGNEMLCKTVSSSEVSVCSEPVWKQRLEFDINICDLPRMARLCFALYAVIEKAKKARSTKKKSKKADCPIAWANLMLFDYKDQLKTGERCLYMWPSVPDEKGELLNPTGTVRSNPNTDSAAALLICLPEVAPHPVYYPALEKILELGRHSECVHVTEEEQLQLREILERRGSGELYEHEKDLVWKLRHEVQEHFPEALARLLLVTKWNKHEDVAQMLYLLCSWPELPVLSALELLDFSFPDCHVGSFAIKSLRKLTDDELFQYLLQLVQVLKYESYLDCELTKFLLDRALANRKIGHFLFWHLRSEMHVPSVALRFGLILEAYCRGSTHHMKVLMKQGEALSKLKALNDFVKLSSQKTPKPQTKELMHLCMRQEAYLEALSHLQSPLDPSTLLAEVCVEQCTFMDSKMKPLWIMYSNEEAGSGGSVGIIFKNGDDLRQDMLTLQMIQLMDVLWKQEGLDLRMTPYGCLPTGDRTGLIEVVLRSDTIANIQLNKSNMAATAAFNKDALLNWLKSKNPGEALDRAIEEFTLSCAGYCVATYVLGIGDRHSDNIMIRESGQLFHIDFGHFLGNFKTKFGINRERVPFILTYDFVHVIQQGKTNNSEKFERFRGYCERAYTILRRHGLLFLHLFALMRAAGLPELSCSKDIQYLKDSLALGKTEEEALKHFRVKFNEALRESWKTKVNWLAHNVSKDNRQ
T2 sequence (P27986 whole entry partner): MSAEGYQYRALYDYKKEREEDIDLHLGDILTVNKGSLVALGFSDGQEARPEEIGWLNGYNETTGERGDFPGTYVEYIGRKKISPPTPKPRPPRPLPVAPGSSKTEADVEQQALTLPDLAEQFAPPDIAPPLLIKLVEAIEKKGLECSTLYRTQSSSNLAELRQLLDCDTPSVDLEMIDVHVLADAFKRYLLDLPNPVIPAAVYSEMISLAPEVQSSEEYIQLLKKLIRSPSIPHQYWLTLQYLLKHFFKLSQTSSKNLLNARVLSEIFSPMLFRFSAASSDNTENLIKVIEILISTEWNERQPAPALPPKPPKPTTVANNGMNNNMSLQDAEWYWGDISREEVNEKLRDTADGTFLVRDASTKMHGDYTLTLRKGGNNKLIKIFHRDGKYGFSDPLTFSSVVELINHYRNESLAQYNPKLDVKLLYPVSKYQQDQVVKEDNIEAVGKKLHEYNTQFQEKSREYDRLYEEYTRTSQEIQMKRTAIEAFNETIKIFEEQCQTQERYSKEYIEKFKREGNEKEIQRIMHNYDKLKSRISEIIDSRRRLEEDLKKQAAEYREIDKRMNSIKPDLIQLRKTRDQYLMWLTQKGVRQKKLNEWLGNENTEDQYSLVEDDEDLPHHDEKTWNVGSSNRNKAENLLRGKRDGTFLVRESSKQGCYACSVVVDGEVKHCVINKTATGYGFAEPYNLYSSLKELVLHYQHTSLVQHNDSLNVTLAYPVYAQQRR
T3 sequence (P42338 whole entry): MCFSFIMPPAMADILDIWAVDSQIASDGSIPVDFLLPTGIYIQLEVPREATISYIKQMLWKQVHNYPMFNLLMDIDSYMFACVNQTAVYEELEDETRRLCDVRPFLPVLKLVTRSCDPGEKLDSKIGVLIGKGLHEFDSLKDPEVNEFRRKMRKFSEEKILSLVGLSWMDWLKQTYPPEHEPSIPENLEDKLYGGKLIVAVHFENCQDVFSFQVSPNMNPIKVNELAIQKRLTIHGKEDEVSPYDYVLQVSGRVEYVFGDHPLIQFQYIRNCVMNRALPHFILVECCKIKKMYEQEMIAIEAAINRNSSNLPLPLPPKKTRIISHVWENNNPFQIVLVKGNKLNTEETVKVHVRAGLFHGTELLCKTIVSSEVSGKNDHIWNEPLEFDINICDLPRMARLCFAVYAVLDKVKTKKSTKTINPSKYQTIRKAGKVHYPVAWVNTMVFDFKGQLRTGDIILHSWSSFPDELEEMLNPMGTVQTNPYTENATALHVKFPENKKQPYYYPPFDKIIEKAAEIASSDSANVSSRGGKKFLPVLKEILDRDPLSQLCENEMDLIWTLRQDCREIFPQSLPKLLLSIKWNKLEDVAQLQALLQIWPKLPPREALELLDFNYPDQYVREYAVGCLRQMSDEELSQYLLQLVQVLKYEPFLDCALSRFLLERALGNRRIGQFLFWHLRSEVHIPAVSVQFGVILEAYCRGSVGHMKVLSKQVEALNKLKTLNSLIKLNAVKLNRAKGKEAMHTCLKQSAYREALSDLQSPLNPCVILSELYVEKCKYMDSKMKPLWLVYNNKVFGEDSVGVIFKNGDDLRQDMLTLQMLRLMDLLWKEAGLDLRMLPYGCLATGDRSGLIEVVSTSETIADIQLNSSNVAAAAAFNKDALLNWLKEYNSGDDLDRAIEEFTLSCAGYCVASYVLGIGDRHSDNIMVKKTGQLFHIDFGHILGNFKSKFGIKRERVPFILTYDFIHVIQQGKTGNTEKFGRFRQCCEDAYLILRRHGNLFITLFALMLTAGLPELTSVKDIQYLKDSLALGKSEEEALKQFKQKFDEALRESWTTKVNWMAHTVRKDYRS
T3 sequence (P27986 whole entry partner): as the sequence (P27986 whole entry partner) above
T5 sequence (P42336 whole entry): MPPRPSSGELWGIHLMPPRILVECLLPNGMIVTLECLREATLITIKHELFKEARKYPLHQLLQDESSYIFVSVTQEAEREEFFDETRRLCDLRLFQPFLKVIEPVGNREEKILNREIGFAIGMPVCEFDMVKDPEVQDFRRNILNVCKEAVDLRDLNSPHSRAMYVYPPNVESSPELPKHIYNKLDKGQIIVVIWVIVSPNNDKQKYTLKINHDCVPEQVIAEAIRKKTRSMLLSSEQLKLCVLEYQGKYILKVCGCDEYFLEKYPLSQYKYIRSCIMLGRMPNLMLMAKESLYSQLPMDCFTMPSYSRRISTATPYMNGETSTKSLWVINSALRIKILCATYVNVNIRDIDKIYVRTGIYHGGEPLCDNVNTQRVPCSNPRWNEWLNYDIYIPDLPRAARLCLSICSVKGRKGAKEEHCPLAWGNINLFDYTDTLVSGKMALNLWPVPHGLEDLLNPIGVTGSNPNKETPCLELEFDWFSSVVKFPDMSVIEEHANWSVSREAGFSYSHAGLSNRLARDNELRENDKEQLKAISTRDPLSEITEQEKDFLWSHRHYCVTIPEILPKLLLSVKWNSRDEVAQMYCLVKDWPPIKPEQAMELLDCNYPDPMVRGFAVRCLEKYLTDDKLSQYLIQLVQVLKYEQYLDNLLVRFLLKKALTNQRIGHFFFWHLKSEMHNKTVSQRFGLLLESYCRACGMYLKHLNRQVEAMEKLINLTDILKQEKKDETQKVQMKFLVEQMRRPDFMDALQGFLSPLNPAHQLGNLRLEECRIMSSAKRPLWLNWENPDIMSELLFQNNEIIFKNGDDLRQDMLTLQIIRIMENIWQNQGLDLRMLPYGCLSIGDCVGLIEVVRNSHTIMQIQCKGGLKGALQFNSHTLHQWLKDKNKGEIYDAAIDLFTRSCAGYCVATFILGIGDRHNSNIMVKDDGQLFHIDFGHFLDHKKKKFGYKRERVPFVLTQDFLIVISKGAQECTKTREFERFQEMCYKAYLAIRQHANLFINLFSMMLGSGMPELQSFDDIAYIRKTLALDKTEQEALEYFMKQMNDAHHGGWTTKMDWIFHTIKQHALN
T5 sequence (P27986 whole entry partner): as the sequence (P27986 whole entry partner) above

For the molecule `C[C@H]1COCCN1c1cc(-c2cccnc2)nc(-c2ccc(NC(=O)NC3CC3)cc2)n1` [Example 3, (S)-1-cyclopropyl-3-(4-(4-(3-methylmorpholino)-6-(pyridin-3-yl)pyrimidin-2-yl)phenyl)urea], the IC50 in assay [1] (setting [8]) was ≥ 10 µM; in assay [1] (setting [9]), ≥ 10 µM; in assay [2] (setting [10]), ≥ 10 µM; in assay [2] (setting [11]) it was ≥ 10 µM; in assay [3], ≥ 10 µM; in assay [4] (setting [12]) it was 0.1 to 1 µM. For the same molecule, the IC50 is 0.1 to 1 µM in assay [4] (setting [13]), < 0.1 µM in assay [5], ≥ 10 µM in assay [6] and ≥ 10 µM in assay [7].
`C[C@H]1COCCN1c1nc(-c2ccc(NC(=O)NC3CC3)cc2)cc(-c2cccnc2[S+](C)[O-])n1` (stereo partly drawn) [Example 45, 1-cyclopropyl-3-(4-(2-((S)-3-methylmorpholino)-6-(2-(methylsulfinyl)pyridin-3-yl)pyrimidin-4-yl)phenyl)urea]: the IC50 in assay [1] (setting [8]) is ≥ 10 µM; in assay [1] (setting [9]), ≥ 10 µM; in assay [2] (setting [10]), 1 to 10 µM; in assay [2] (setting [11]), 1 to 10 µM; in assay [3], 1 to 10 µM; in assay [4] (setting [12]), < 0.1 µM. The IC50 in assay [4] (setting [13]) is < 0.1 µM; in assay [5] it was 0.1 to 1 µM; in assay [6] it was 1 to 10 µM; in assay [7], ≥ 10 µM.
Regarding `C[C@H]1COCCN1c1nccc(-c2ccc(NC(=O)NCCO)cc2)n1` [Example 58, (S)-1-(2-hydroxyethyl)-3-(4-(2-(3-methylmorpholino)pyrimidin-4-yl)phenyl)urea], the IC50 was ≥ 10 µM in assay [1] (setting [8]); ≥ 10 µM in assay [1] (setting [9]); ≥ 10 µM in assay [2] (setting [10]); ≥ 10 µM in assay [2] (setting [11]); ≥ 10 µM in assay [3]; 1 to 10 µM in assay [4] (setting [12]). Moreover, the IC50 is 1 to 10 µM in assay [4] (setting [13]), 0.1 to 1 µM in assay [5], ≥ 10 µM in assay [6] and ≥ 10 µM in assay [7].
With `O=C(NCCO)Nc1ccc(-c2nccc(N3CC4CCC(C3)O4)n2)cc1` [Example 50, 1-(4-(4-(8-oxa-3-azabicyclo[3.2.1]octan-3-yl)pyrimidin-2-yl)phenyl)-3-(2-hydroxyethyl)urea], the IC50 in assay [1] (setting [8]) was 1 to 10 µM; in assay [1] (setting [9]), 1 to 10 µM; in assay [2] (setting [10]) it was ≥ 10 µM; in assay [2] (setting [11]) it was ≥ 10 µM; in assay [3], ≥ 10 µM; in assay [4] (setting [12]), < 0.1 µM. In addition, the IC50 is < 0.1 µM in assay [4] (setting [13]), 0.1 to 1 µM in assay [5], ≥ 10 µM in assay [6] and ≥ 10 µM in assay [7].
Consider `CNC(=O)Nc1ccc(-c2nccc(N3CCOC[C@@H]3C)n2)cc1` [Example 34, (S)-1-methyl-3-(4-(4-(3-methylmorpholino)pyrimidin-2-yl)phenyl)urea], for which the IC50 in assay [1] (setting [8]) was ≥ 10 µM; in assay [1] (setting [9]) it was ≥ 10 µM; in assay [2] (setting [10]) it was ≥ 10 µM; in assay [2] (setting [11]), ≥ 10 µM; in assay [4] (setting [12]), 1 to 10 µM; in assay [4] (setting [13]), 1 to 10 µM. In addition, in assay [5], the IC50 lay within 0.1 to 1 µM.
With `C[C@H]1COCCN1c1cc(-c2cncc(S(C)(=O)=O)c2)nc(-c2ccc(NC(=O)NC3CC3)cc2)n1` [Example 22, (S)-1-cyclopropyl-3-(4-(4-(3-methylmorpholino)-6-(5-(methylsulfonyl)pyridin-3-yl)pyrimidin-2-yl)phenyl)urea], the IC50 is ≥ 10 µM in assay [1] (setting [8]); ≥ 10 µM in assay [1] (setting [9]); ≥ 10 µM in assay [2] (setting [10]); ≥ 10 µM in assay [2] (setting [11]); 1 to 10 µM in assay [4] (setting [12]); 1 to 10 µM in assay [4] (setting [13]). The IC50 in assay [5] fell in the range of 0.1 to 1 µM.
With `CC(=O)NCCNC(=O)Nc1ccc(-c2cc(-c3cc(F)ccc3S(C)(=O)=O)nc(N3CCOC[C@@H]3C)n2)cc1` [Example 85, (S)—N-(2-(3-(4-(6-(5-fluoro-2-(methylsulfonyl)phenyl)-2-(3-methylmorpholino)pyrimidin-4-yl)phenyl)ureido)ethyl)acetamide], the IC50 is ≥ 10 µM in assay [1] (setting [9]); ≥ 10 µM in assay [2] (setting [11]); ≥ 10 µM in assay [3]; 1 to 10 µM in assay [4] (setting [13]); ≥ 10 µM in assay [6]; ≥ 10 µM in assay [7].
